According to patent publication US20240075108A1, “HEPATOCELLULAR CARCINOMA TREATMENTS, PROPHYLACTIC THERAPIES, AND COMPOSITIONS FOR USE THEREWITH” (REPAIR BIOTECHNOLOGIES, INC., priority 2020, published 2024):

What was measured:
[1] = test system: CDP-Hep3B cells; test: MTT cell viability assay with sorafenib, CDP-Hep3B cells; type: cell-based; details: Homo sapiens, 12000 cells/well, 48 hours, n=3 independent experiments, read-out: calculated IC50 (cell viability)
Method: (§1) Human Hep3B hepatocellular carcinoma cells (from ATCC at www.atcc.org/products/all/HB-8064.aspx) were grown in Eagle's minimum essential media (EMEM) supplemented with 10% heat-inactivated FBS, PenStrep (100 units/mL//[…]) and 2mM L-Glutamine.
(§2) Hep3B cells were transduced with either empty lentivirus (MOI=5) or lentivirus harboring CDP (MOI=5). Transduced cells were selected by growth in puromycin (4 μg/mL) to establish stable cell lines of Mock-Hep3B (empty lentivirus) and CDP-Hep3B (lentivirus containing CDP). FIG. 1 is a representative western blot showing the expression of Flag-tagged CDP in CDP-Hep3B cells (“CDP”) and not in Mock-Hep3B cells (“Mock”). […]
(§3) The growth and viability of Mock- and CDP-Hep3B cells were assessed by cell proliferation assay, using the tetrazolium salt 3-[4,5-di-methylthiazol-2yl]-2,5-diphenyl-tetrazolium bromide (MTT) reagent (resources.rndsystems.com/pdfs/datasheets/4890-025-k.pdf). […] Detergent reagent was then added to each well to solubilize the formazan dye prior to measuring the absorbance of each sample in a microplate reader at 570 nm.
(§4) Growth rates of stable cell lines were also obtained in the presence of Sorafenib. […] Cell viability was assessed using the MTT assay after 48 hours as described above.

[2] = test system: Mock-Hep3B cells; test: MTT cell viability assay with sorafenib, Mock-Hep3B cells; type: cell-based; details: Homo sapiens, 12000 cells/well, 48 hours, n=3 independent experiments, read-out: calculated IC50 (cell viability)
Method: as §1, §2, §3, §4

IC50 [1]: 4.64 ± 0.16 µM
Structure (SMILES): CNC(=O)c1cc(Oc2ccc(NC(=O)Nc3ccc(Cl)c(C(F)(F)F)c3)cc2)ccn1 [sorafenib, Sorafenib]
IC50 [2]: 4.76 ± 0.62 µM
